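Grown in 96-well plates, cells were treated for 48 hours with each compound at five concentrations. Insufficient inhibition: endpoint recorded as highest concentration tested. The concentration for 50% growth inhibition is given as GI50.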 Calls of active or inactive are those of the source. No stated cut-off is given here; in the data, active = GI50 up to about 1.1 µM and inactive = higher.
Columns and labels:
Assay in all cases: DTP human tumour cell line panel, 48 h
[1] = test system: A549
[2] = test system: COLO 205
[3] = test system: DU-145
[4] = test system: EKVX
[5] = test system: HCT-15
[6] = test system: HOP-62
[7] = test system: Hs-578T
[8] = test system: IGROV-1
[9] = test system: LOX IMVI
[10] = test system: MCF7
[11] = test system: NCI-H226
[12] = test system: NCI-H460
[13] = test system: NCI/ADR-RES
[14] = test system: OVCAR-4
[15] = test system: OVCAR-5
[16] = test system: OVCAR-8
[17] = test system: SF-268
[18] = test system: SN12C
[19] = test system: U-251
[20] = test system: UO-31

| SMILES | GI50 [1] | GI50 [2] | GI50 [3] | GI50 [4] | GI50 [5] [µM] | GI50 [6] | GI50 [7] | GI50 [8] | GI50 [9] | GI50 [10] | GI50 [11] | GI50 [12] | GI50 [13] | GI50 [14] | GI50 [15] | GI50 [16] | GI50 [17] | GI50 [18] | GI50 [19] | GI50 [20] |
| --- | --- | --- | --- | --- | --- | --- | --- | --- | --- | --- | --- | --- | --- | --- | --- | --- | --- | --- | --- | --- |
| O=C(Nc1ccccc1)OC1OC(COC(=O)c2ccccc2)C(OC(=O)c2ccccc2)C1OS(=O)(=O)c1ccc([N+](=O)[O-])cc1 (stereo not given) | > 100 µM (inactive) | > 100 µM (inactive) | > 100 µM (inactive) | 63.8 µM (inactive) | > 100 | > 100 µM (inactive) | 78.7 µM (inactive) | > 100 µM (inactive) | > 100 µM (inactive) | > 100 µM (inactive) | > 100 µM (inactive) | > 100 µM (inactive) | > 100 µM (inactive) | > 100 µM (inactive) | > 100 µM (inactive) | > 100 µM (inactive) | > 100 µM (inactive) | > 100 µM (inactive) | > 100 µM (inactive) | > 100 µM (inactive) |
| CC(=O)OCC1OC(n2c(S)nc(-c3ccccc3)c(C#N)c2=O)C(OC(C)=O)C(OC(C)=O)C1OC(C)=O (stereo not given) | > 100 µM (inactive) | > 100 µM (inactive) | > 100 µM (inactive) | > 100 µM (inactive) | > 100 | > 100 µM (inactive) | > 100 µM (inactive) | > 100 µM (inactive) | > 100 µM (inactive) | > 100 µM (inactive) | > 100 µM (inactive) | > 100 µM (inactive) | > 100 µM (inactive) | > 100 µM (inactive) | > 100 µM (inactive) | > 100 µM (inactive) | > 100 µM (inactive) | > 100 µM (inactive) | > 100 µM (inactive) | > 100 µM (inactive) |
| N=c1oc2ccc(Cl)cc2cc1C(=O)NCc1ccccc1 | > 100 µM (inactive) | > 100 µM (inactive) | > 100 µM (inactive) | > 100 µM (inactive) | > 77.8 | > 87.3 µM (inactive) | 30.5 µM (inactive) | > 100 µM (inactive) | > 100 µM (inactive) | > 100 µM (inactive) | > 100 µM (inactive) | > 100 µM (inactive) | 27.4 µM (inactive) | > 100 µM (inactive) | > 100 µM (inactive) | > 100 µM (inactive) | > 100 µM (inactive) | > 100 µM (inactive) | > 86.3 µM (inactive) | > 61.7 µM (inactive) |
| Oc1c(Cl)c(Cl)c(Cl)c(Cl)c1Cl [PENTACHLOROPHENOL] | 23.1 µM (inactive) | 31 µM (inactive) | 21.4 µM (inactive) | 23.4 µM (inactive) | 19.5 | 25.4 µM (inactive) | 35.2 µM (inactive) | 18.8 µM (inactive) | 17.9 µM (inactive) | 24.9 µM (inactive) | 28.4 µM (inactive) | > 100 µM (inactive) | 17.9 µM (inactive) | 21.8 µM (inactive) | 18.4 µM (inactive) | 20.8 µM (inactive) | 31.1 µM (inactive) | 19.1 µM (inactive) | 16.1 µM (inactive) | 17 µM (inactive) |
| OC1CCCCCCCCCCC1SCCCCl (stereo not given) | > 100 µM (inactive) | > 100 µM (inactive) | > 100 µM (inactive) | > 100 µM (inactive) | > 100 | > 100 µM (inactive) | > 100 µM (inactive) | > 100 µM (inactive) | > 100 µM (inactive) | > 100 µM (inactive) | > 100 µM (inactive) | > 100 µM (inactive) | > 100 µM (inactive) | > 100 µM (inactive) | > 100 µM (inactive) | > 100 µM (inactive) | > 100 µM (inactive) | > 100 µM (inactive) | > 100 µM (inactive) | > 100 µM (inactive) |
| CCN(CC)C(=O)N[C@@H](Cc1ccccc1)C(=O)NC | > 100 µM (inactive) | > 100 µM (inactive) | > 100 µM (inactive) | > 100 µM (inactive) | > 100 | > 100 µM (inactive) | > 100 µM (inactive) | > 100 µM (inactive) | > 100 µM (inactive) | > 100 µM (inactive) | > 100 µM (inactive) | > 100 µM (inactive) | > 100 µM (inactive) | > 100 µM (inactive) | > 100 µM (inactive) | > 100 µM (inactive) | > 100 µM (inactive) | > 100 µM (inactive) | > 100 µM (inactive) | > 100 µM (inactive) |
| CC(=O)OC/C=C/[C@H](O[Si](C)(C)C(C)(C)C)[C@@H](O)/C=C/COC(C)=O | > 100 µM (inactive) | > 100 µM (inactive) | > 100 µM (inactive) | > 100 µM (inactive) | > 100 | > 100 µM (inactive) | > 100 µM (inactive) | > 100 µM (inactive) | 76.6 µM (inactive) | 49.5 µM (inactive) | > 100 µM (inactive) | > 100 µM (inactive) | > 100 µM (inactive) | > 100 µM (inactive) | > 100 µM (inactive) | > 100 µM (inactive) | > 100 µM (inactive) | > 100 µM (inactive) | > 100 µM (inactive) | > 100 µM (inactive) |
